{"source": "patent US20200121666A1", "about": "“TAU PHOSPHORYLATION INHIBITORS AND METHODS FOR TREATING OR PREVENTING ALZHEIMER'S DISEASE” (THE METHODIST HOSPITAL SYSTEM, priority 2017, published 2020)", "key": {"[1]": {"system": "3D AD model (#A5)", "assay": "RNA-seq canonical pathway analysis of 3D AD cultures treated with anti-Aβ drugs", "type": "cell-based, human", "details": "anti-Aβ drug treatment versus DMSO", "source_text": "FIG. 15. […] Pearson correlations of global gene expression profile among 2D undifferentiated control ReN cells, 3D control (G2# B2on), AD # A5 (# A5, moderate Aβ42/40 ratio ˜0.2), AD # D4 (# D4, high Aβ42/40 ratio, ˜1.4), and AD # H10 (# H10, extra high Aβ42/40 ratio, ˜1.7). Units are log CPM. b. Volcano plots show −log10(FDR) vs log FC distribution for G2# B2 (control) vs AD # A5 (AD), AD # A5 DMSO vs AD # A5 BSI (BACE inhibitor, Ly2886721), and AD # A5 DMSO vs AD # A5 GSM (gamma secretase modulator, SGSM15606) transcriptomic signatures. […] Canonical pathway analysis between G2# B2 and AD # A5 (Ingenuity pathway analysis, Qiagen). d. Analysis of common canonical pathways. The pathway analysis among G2# B2 vs AD # A5, AD # A5 DMSO vs AD # A5 BSI, and AD # A5 DMSO vs AD # A5 GSM. Activation z-scores indicate that majority of decreased pathways in AD # A5 are restored by BSI and/or GSM treatments. e. […]\nTo examine the multiple single-clonal AD models, unbiased whole genome RNA-seq analyses were performed to compare gene expression profiles among the clonal AD models with different Aβ42/40 ratios, as compared to control 3D cultures and undifferentiated 2D control cells (FIG. 15a-d). […] Differential gene expression profile of 3D AD cultures were analyzed after treating anti-Aβ drugs (BACE1 inhibitor, Ly2886721; Gamma-secretase modulator (GSM), GSM15606) (FIG. 15b). […]"}, "[2]": {"system": "phospho-tau (AT8) in ReNCell VM cells carrying the APPSL mutation", "assay": "High-content screen of phospho-tau (AT8) staining in 3D cultured FAD neural stem cells", "type": "cell-based, human", "details": "for inhibition of pTau / tau hyperphosphorylation: primary screen of 2,640 compounds, compound added from the beginning of culture, whole-well AT8 images", "source_text": "FIG. 1. High-content screening. FAD-transfected neural stem cells were 3D cultured in matrigel and treated with each compound. Cells were stained with phospho-tau antibody (AT8). Images covering the whole well were taken and quantified as the readout.\nA 3D human neural culture model of AD was developed by culturing ReNCell VM cells carrying the APPSL mutation in a thin layer (50˜100 μm thick) of Matrigel. This method was then miniaturized to 96, 384, or other high content well plate formats (FIG. 1) to provide a faithful model for testing the effect of compounds on AD. However, the high-throughput screening is limited by its readout of microscopy images, which cannot be analyzed manually in large quantity.\nTo enable high-throughput in vitro screening, an image-processing program was developed, based on NeuriteIQ software^17-23 (FIG. 2A), to automatically quantify tau phosphorylation from images of cultured cells. The program processes images from th e nucleus and neurite channels separately. In the nucleus channel, nuclei are detected and segmented by local maximum detection and watershed method. In the neurite channel, phospho-tau stained cells are treated as two-dimensional curvilinear structures and processed based on the local Hessian matrix^24,25, which allows the detection of center points and local directions of neurites in a field. The program reliably quantified the number of neurons with hyper-phosphorylated tau (FIG. 2B). Thus, a high-content screening system for the identification of compounds targeting the tau pathology in AD was established.\nKnown drug and bioactive compounds (2,640 compounds) were selected for the initial screen from the Sigma-Aldrich LOPAC (1280), Tocriscreen Total Library (1120), and a manual selection of 240 Kinase Inhibitors. […] A few of the 38 compounds have been previously reported to inhibit tau phosphorylation in AD animal models (e.g., baicalein^26 and tretinoin^27), further validating the credibility of the screen. Most, however, are novel AD candidates."}, "[3]": {"system": "pTau in AD-in-a-dish model", "assay": "Validation of SMART-predicted compounds in the reformatted high content AD-in-a-dish model", "set-up": "species or system human", "details": "cell-based validation of 26 purchased SMART predictions", "source_text": "Twenty-two of the 38 aforementioned screening hits had LINCS data covering the perturbation profiles for at least 4 cell lines. From these 22 hits, 2 were eliminated because no known drug candidates ranked high enough based on transcriptomic similarities to these two primary hits; and 3 others were removed upon inspection of the compound properties of the predictions they made, i.e., the predicted drugs may be toxic or unfit for systematic use. Thus, the 17 primary hits shown in Table 1 were used to initiate a pilot run using the SMART framework. The cMAP algorithm^7 was used to rank all compounds in the LINCSCloud, based on the similarity of transcriptomic profiles to each of the 17 primary hits. If any compound was determined by cMAP algorithm to have a similarity score larger than 90 to at least one of the primary hits, it was identified as a hit candidate. After filtering based on pharmacology features, 85 candidates predicted by 17 primary hits (Table 1) remained; 26 of these 85 compounds were purchased for validation after analysis for pharmacology and medical practice features."}, "[4]": {"system": "tau phosphorylation", "details": "previously reported; cited from earlier work"}, "[5]": {"system": "3D AD cell model transcriptome", "assay": "Whole genome RNAseq after compound treatment versus control", "type": "cell-based, human", "details": "for immune and inflammatory related pathways (5 of 6 connected to 12 down-regulated genes): after treatment versus control; for down-regulated genes in PPI subnetwork, shared by both treatments / up-regulated genes in PPI subnetwork, shared by both treatments: |log FC|>1.5 versus control", "source_text": "PPI information was extracted from STRING database version 10.5 with the cutoff for confidence score at 0.4.\nGiven ebselen and leflunomide in FIG. 17, an unbiased whole genome RNAseq analysis was used to obtain transcriptomic profiles after the treatment of each compound and compare them separately to control conditions. For both treatments, a subset of genes and pathways show significant change (|log FC|>1.5) in the same direction over control condition. […] These 22 genes have 102 PPI pairs among them, and there are 7 genes directly connected to APP (coding Aβ) or MAPT (coding Tau).\nIt's worth noting that the enrichment of immune and inflammatory related pathway changes is consistent with the characteristics of the 3D cell model, as this system contains astrocytes, which is one of the brain innate immune cells. […] Also, neuroinflammatory pathways are highly unregulated in high Abeta42/40 lines (D4 and H10) as compared to A5 (similar to GA2) (data not shown)."}, "[6]": {"system": "p-tau (pSer396/Ser404)", "assay": "Quantitative immunofluorescence staining in 3D AD models with high Aβ42/40 ratios", "type": "cell-based, human", "details": "5 μM for 3 weeks", "source_text": "FIG. 17. Validation of primary hit candidates. Primary hit candidates were confirmed using Western blot analysis (a) and quantitative immunofluorescence staining in 3D AD models with high Aβ42/40 ratios (# HReN and # A4H1) (b). PHF1 pSer396/Ser404 tau antibody was used to detect changes in phospho tau in 3D AD # HReN cells treated with DMSO vehicle, ebselen, or leflunomide.\nIn addition to MSD Mesoscale ELISA shown in FIG. 16, quantitative Western blot and immunofluorescence analysis were used to validate candidate drugs. […] Ebselen and leflunomide are compounds screened from original HCS screening of […] biologically active/FDA-approved drug library. […] Moreover, quantitative immunofluorescence staining was used to analyze p-tau changes after treating these compounds."}}}
{"compound": "COc1nc(-c2cc(C)c(NC(C)c3ccc(F)cc3)nn2)ccc1-n1cnc(C)c1", "note": "(centres unmarked) [GSM15606]", "values": [{"measurement": "enriched canonical pathways of the 3D AD model", "setting": "[1]", "result": "significantly altered"}]}
{"compound": "NC1=N[C@@]2(c3cc(NC(=O)c4ccc(F)cn4)ccc3F)COC[C@H]2CS1", "note": "[Ly2886721]", "values": [{"measurement": "enriched canonical pathways of the 3D AD model", "setting": "[1]", "result": "significantly altered"}]}
{"compound": "CC[N+](CC)(CC)CCOc1ccc(/C=C/c2ccccc2)cc1", "note": "[MG624, mg 624]", "values": [{"measurement": "tau phosphorylation, late addition", "setting": "[2]; compound added after week 2, when tau phosphorylation should have already developed", "result": "significantly reduced"}, {"measurement": "tau phosphorylation, late addition", "setting": "[2]; compound added after week 4, cells fixed and stained at week 6", "result": "significantly reduced"}, {"measurement": "inhibition of pTau / tau hyperphosphorylation", "setting": "[2]", "result": "almost completely inhibited"}]}
{"compound": "C1CCC(C(CC2CCCCN2)C2CCCCC2)CC1.O=C(O)/C=C\\C(=O)O", "note": "(centres unmarked) [Perhexiline, perhexiline maleate]", "values": [{"measurement": "inhibition of pTau", "setting": "[3]", "result": "successful predictions"}]}
{"compound": "O=c1cc(-c2ccccc2)oc2cc(O)c(O)c(O)c12", "note": "[baicalein]", "values": [{"measurement": "tau phosphorylation in AD animal models", "setting": "[4]", "result": "inhibit"}]}
{"compound": "Oc1c(Cl)cc(Cl)c2cccnc12", "note": "[chloroxine]", "values": [{"measurement": "inhibition of pTau", "setting": "[3]", "result": "validated hits"}]}
{"compound": "O=c1c2ccccc2[se]n1-c1ccccc1", "note": "[ebselen]", "values": [{"measurement": "immune and inflammatory related pathways (5 of 6 connected to 12 down-regulated genes)", "setting": "[5]", "result": "significantly down-regulated"}, {"measurement": "down-regulated genes in PPI subnetwork, shared by both treatments", "setting": "[5]", "result": 15, "unit": "genes"}, {"measurement": "up-regulated genes in PPI subnetwork, shared by both treatments", "setting": "[5]", "result": 7, "unit": "genes"}]}
{"compound": "CCC(C)[C@H]1O[C@]2(CC[C@@H]1C)C[C@@H]1C[C@@H](C/C=C(\\C)[C@@H](O[C@H]3C[C@H](OC)[C@@H](O[C@H]4C[C@H](OC)[C@@H](O)[C@H](C)O4)[C@H](C)O3)[C@@H](C)/C=C/C=C3\\CO[C@@H]4[C@H](O)C(C)=C[C@@H](C(=O)O1)[C@]34O)O2", "note": "(some centres unmarked) [ivermectin]", "values": [{"measurement": "inhibition of pTau / tau hyperphosphorylation", "setting": "[2]", "result": "almost completely inhibited"}, {"measurement": "inhibition of pTau / tau hyperphosphorylation", "setting": "[2]; listed as Ivermectin", "result": "most significant phenotype"}]}
{"compound": "Cc1oncc1C(=O)Nc1ccc(C(F)(F)F)cc1", "note": "[leflunomide]", "values": [{"measurement": "cellular viability and neurite networks", "setting": "[6]", "result": "without affecting"}, {"measurement": "p-tau (pSer396/Ser404) accumulation", "setting": "[6]", "result": "robustly decreased"}, {"measurement": "immune and inflammatory related pathways (5 of 6 connected to 12 down-regulated genes)", "setting": "[5]", "result": "significantly down-regulated"}, {"measurement": "down-regulated genes in PPI subnetwork, shared by both treatments", "setting": "[5]", "result": 15, "unit": "genes"}, {"measurement": "up-regulated genes in PPI subnetwork, shared by both treatments", "setting": "[5]", "result": 7, "unit": "genes"}]}
{"compound": "N=C(N)c1ccc(OCCCCCOc2ccc(C(=N)N)cc2)cc1", "note": "[pentamidine, pentamidine isethionate]", "values": [{"measurement": "inhibition of pTau / tau hyperphosphorylation", "setting": "[2]", "result": "almost completely inhibited"}]}
{"compound": "CC1=C(/C=C/C(C)=C/C=C/C(C)=C/C(=O)O)C(C)(C)CCC1", "note": "[retinoic acid]", "values": [{"measurement": "tau phosphorylation in AD animal models", "setting": "[4]", "result": "inhibit"}]}
